Source: patent publication US7026327B2, “Pyrimidine derivatives useful as selective COX-2 inhibitors” (Glaxo Group Limited, priority 2001, dated 2006)
Like-named read-outs stand apart in the source and are kept apart here.

Columns and labels:
COX-1 [1] = biological target: T1, COX-1 (Homo sapiens, UniProt P23219); experiment: Microsomal assay, COX-1; assay type: biochemical
microsomal h-COX2 = biological target: T2, microsomal h-COX2 (Homo sapiens, UniProt P35354); experiment: Microsomal assay, h-COX2 microsomal preparation from baculovirus infected SF9 cells; assay type: biochemical
T2 construct: made in house; host or cells: baculovirus infected SF9 cells (microsomal preparation)
T2 sequence (P35354 18-604): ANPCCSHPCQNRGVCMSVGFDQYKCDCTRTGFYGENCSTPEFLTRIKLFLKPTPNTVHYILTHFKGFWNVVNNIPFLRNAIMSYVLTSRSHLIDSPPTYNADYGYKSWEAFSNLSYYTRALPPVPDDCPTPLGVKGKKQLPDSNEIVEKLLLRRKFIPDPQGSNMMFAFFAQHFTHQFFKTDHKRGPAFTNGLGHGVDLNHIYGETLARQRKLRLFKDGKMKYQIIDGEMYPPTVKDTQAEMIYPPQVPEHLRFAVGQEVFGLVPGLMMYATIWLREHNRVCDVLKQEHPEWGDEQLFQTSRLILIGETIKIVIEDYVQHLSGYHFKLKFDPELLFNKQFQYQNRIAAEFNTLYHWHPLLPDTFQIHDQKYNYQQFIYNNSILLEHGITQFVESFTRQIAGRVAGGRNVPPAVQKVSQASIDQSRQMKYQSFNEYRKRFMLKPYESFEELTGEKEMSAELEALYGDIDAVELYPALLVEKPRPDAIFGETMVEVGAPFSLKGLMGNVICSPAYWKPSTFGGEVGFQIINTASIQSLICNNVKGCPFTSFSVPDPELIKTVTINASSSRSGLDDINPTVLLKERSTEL
Procedure: Inhibitory activity against microsomal h-COX2 was assessed against a microsomal preparation from baculovirus infected SF9 cells. An aliquot of microsomal preparation was thawed slowly on ice and a 1/40,000 dilution prepared from it into the assay buffer (sterile water, degassed with argon containing 100 mM HEPES (pH 7.4), 10 mM EDTA (pH7.4), 1 mM phenol, 1 mM reduced glutathione, 20 mg/ml gelatin and 0.001 mM Hematin). Once diluted the enzyme solution was then sonicated for 5 seconds (Branson sonicator, setting 4, 1 cm tip) to ensure a homogeneous suspension. 155 μl enzyme solution was then added to each well of a 96-well microtitre plate containing either 5 μl test compound (40× required test concentration) or 5 μl DMSO for controls. Plates were then mixed and incubated at room temperature for 1 hour. Following the incubation period, 40 μl of 0.5 μM arachidonic acid was added to each well to give a final concentration of 0.1 μM. Plates were then mixed and incubated for exactly 10 minutes (room temperature) prior to addition of […] HCl (hydrochloric acid) to each well to stop the reaction. 25 μl of 1 M NaOH (sodium hydroxide) was then added to each well to neutralise the solution prior to determination of PGE2 levels by enzyme immunoassay (EIA).

human COX-2 = biological target: T3, human COX-2 (Homo sapiens, UniProt P35354); experiment: Cell based assay, COS cells stably transfected with human COX-2, PGE2 release
T3 construct: expressed in transfected cells; host or cells: COS cells, stably transfected
T3 sequence (P35354 18-604): T2 sequence (P35354 18-604)
Procedure: (§1) Inhibitory activity against human COX-1 and COX-2 was assessed in COS cells which had been stably transfected with cDNA for human COX-1 and human COX-2. 24 Hours prior to experiment, COS cells were transferred from the 175 cm^2 flasks in which they were grown, onto 24-well cell culture plates using the following procedure. The incubation medium (Dulbecco's modified eagles medium (DMEM) supplemented with heat-inactivated foetal calf serum (10% v/v), penicillin (100 IU/ml), streptomycin (100 μg/ml) and geneticin (600 μg/ml)) was removed from a flask of confluent cells (1 flask at confluency contains approximately 1×10^7 cells). 5 ml of phosphate buffered saline (PBS) was added to the flask to wash the cells. Having discarded the PBS, cells were then incubated with 5 ml trypsin for 5 minutes in an incubator (37°). The flask was then removed from the incubator and 5 ml of fresh incubation medium was added. The contents of the flask was transferred to a 250 ml sterile container and the volume of incubation medium subsequently made up to 100ml. 1 ml cell suspension was pipetted into each well of 4×24-well cell culture plates. The plates were then placed in an incubator (37° C., 95% air/5% CO2) overnight. If more than 1 flask of cells were required, the cells from the individual flasks were combined before being dispensed into the 24-well plates.
(§2) Following the overnight incubation, the incubation medium was completely removed from the 24-well cell culture plates and replaced with 250 μl fresh DMEM (37° C.). The test compounds were made up to 250× the required test concentration in DMSO and were added to the wells in a volume of 1 μl. Plates were then mixed gently by swirling and then placed in an incubator for 1 hour (37° C., 95% air/5% CO2). Following the incubation period, 10 μl of arachidonic acid (750 μM) was added to each well to give a final arachidonic acid concentration of 30 μM. Plates were then incubated for a further 10 minutes, after which the incubation medium was removed from each well of the plates and stored at −20° C., prior to determination of prostaglandin E2 (PGE2) levels using enzyme immunoassay. […] The selectivity ratio of inhibition of COX-1 versus COX-2 was calculated by comparing respective IC50 values.

COX-1 [2] = biological target: T1, COX-1; experiment: Cell based assay, COS cells stably transfected with human COX-1, PGE2 release; parameters: expressed in transfected cells; host or cells: COS cells, stably transfected
Procedure: as §1, §2

[3] = microsomal assay, PGE2 by EIA, 0.1 μM arachidonic acid, read-out: COX-2: IC50

T1 sequence (P23219 24-599): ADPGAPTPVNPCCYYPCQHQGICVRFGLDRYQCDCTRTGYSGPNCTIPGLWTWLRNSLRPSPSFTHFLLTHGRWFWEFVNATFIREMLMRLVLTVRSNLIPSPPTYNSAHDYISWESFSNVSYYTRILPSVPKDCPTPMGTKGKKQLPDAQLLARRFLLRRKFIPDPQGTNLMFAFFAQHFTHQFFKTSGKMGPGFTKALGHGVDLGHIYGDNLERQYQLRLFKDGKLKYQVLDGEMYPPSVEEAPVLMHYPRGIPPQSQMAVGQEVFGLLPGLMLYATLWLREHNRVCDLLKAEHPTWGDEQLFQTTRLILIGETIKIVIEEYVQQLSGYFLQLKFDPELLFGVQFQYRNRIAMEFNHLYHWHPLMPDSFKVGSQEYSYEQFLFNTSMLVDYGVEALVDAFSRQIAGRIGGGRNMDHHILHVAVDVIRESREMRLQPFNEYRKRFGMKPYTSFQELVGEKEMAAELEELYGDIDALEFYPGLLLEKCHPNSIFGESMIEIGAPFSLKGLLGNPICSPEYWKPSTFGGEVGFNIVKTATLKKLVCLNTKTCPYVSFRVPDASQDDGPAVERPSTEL

In the case of `CS(=O)(=O)c1ccc(-c2cc(C(F)(F)F)nc(Oc3cncc(Cl)c3)n2)cc1` [Example 7, 2-[(5-chloropyridin-3-yl)oxy]-4-[4-(methylsulfony)phenyl]-6-(trifluoromethyl)pyrimidine], the IC50 (COX-1 [1]) is reported as 79.9 µM and the IC50 (microsomal h-COX2; [3]) is reported as < 10 nM.

`CCCCOc1nc(-c2ccc(S(C)(=O)=O)cc2)cc(C(F)(F)F)n1` [Example 10, 2-Butoxy-4-[4-(methylsulfonyl)phenyl]-6-(trifluoromethyl)pyrimidine] showed an IC50 (microsomal h-COX2; [3]) of 22 nM.

`CS(=O)(=O)c1ccc(-c2cc(C(F)(F)F)nc(Oc3ccc(F)c(F)c3)n2)cc1` [Example 2] was tested, and the IC50 (human COX-2) was 23 nM and the IC50 (COX-1 [2]) was 9.67 µM.

In the case of `CS(=O)(=O)c1ccc(-c2cc(C(F)(F)F)nc(Oc3ccc(F)cc3)n2)cc1` [Example 1, 2-(4-Fluorophenoxy)-4-[4-(methylsulfonyl)phenyl]-6-(trifluoromethyl)pyrimidine], the IC50 (human COX-2) is reported as < 1 nM and the IC50 (COX-1 [2]) is reported as 81.3 µM.

`CS(=O)(=O)c1ccc(-c2cc(C(F)(F)F)nc(Oc3ccc(Br)cc3)n2)cc1` [Example 5] gave an IC50 (human COX-2) of 6 nM and an IC50 (COX-1 [2]) of 61.4 µM.

`CS(=O)(=O)c1ccc(-c2cc(C(F)(F)F)nc(OCC3CCCC3)n2)cc1` [Example 9] showed an IC50 (microsomal h-COX2) of 22 nM.

Compound `COc1ccc(Oc2nc(-c3ccc(S(C)(=O)=O)cc3)cc(C(F)(F)F)n2)cc1` [Example 3] has an IC50 (human COX-2) of 4 nM and an IC50 (COX-1 [2]) of 2.92 µM.

Compound `CS(=O)(=O)c1ccc(-c2cc(C(F)(F)F)nc(OC3CCCCC3)n2)cc1` [Example 8, 2-(cyclohexyloxy)-4-[4-(methylsulfonyl)phenyl]-6-(trifluoromethyl)pyrimidine] has an IC50 (COX-1 [1]) of 1.86 µM.

In the case of `Cc1ccc(Oc2nc(-c3ccc(S(C)(=O)=O)cc3)cc(C(F)(F)F)n2)cc1` [Example 6], the IC50 (COX-1 [1]) is reported as 3.75 µM and the IC50 (microsomal h-COX2; [3]) is reported as < 10 nM.
